From patent US20190358181A1, “METHODS FOR AUTISM SPECTRUM DISORDER PHARMACOTHERAPY” (priority 2017, published 2019)

Test system: 610 metabolites from 63 biochemical pathways
Test: Targeted broad-spectrum plasma metabolomic analysis (LC-MS/MS), paired pre-infusion vs post-infusion (2-days and 6-weeks)
Format: in vivo, human
Conditions: plasma, 2-days after infusion vs pre-infusion
Method: Targeted, broad-spectrum, plasma metabolomic analysis of 610 metabolites from 63 biochemical pathways was performed by high performance liquid chromatography and tandem mass spectrometry (LC-MS/MS) on the samples collected from patients in Example 1. Venous blood was collected between the hours of 8 am and 5 pm, at least 3 hours after the last meal, into lithium-heparin vacutainer tubes (BD #367884). Plasma was separated by centrifugation at 900 g×10 minutes at room temperature within one hour of collection. The resulting fresh lithium-heparin plasma was transferred to labeled 1.2 ml or 2.0 ml externally threaded cryotubes with a minimum headspace air gap for storage at −80° C. for analysis. Samples were analyzed on an AB SCIEX QTRAP 5500 triple quadrupole mass spectrometer equipped with a Turbo V electrospray ionization (ESI) source, Shimadzu LC-20A UHPLC system, and a PAL CTC autosampler. Typically, 90 μl of plasma was thawed on ice and transferred to a 1.7 ml Eppendorf tube. Five (5.0) μl of a cocktail containing 25-35 commercial stable isotope internal standards, and 5.0 μl of 57 stable isotope internal standards that were custom-synthesized in E. coli NCM3722, Caenorhabditis elegans N2, and Komagataella phaffii (ATCC 76273; formerly known as Pichia pastoris) by metabolic labeling with 13C-glucose and 13C-bicarbonate, were added, mixed, and incubated for 10 min at 20° C. to permit small molecules and vitamins in the internal standards to associate with plasma binding proteins. Macromolecules (protein, DNA, RNA, glycans, etc.) were precipitated by extraction with 4 volumes (400 μl) of cold (−20° C.), acetonitrile:methanol (50:50) (LCMS grade, Cat #LC015-2.5 and GC230-4, Burdick & Jackson, Honeywell), vortexed vigorously, and incubated on crushed ice for 10 min, then removed by centrifugation at 16,000 g×10 min at 4° C. The supernatants containing the extracted metabolites and internal standards in the resulting 40:40:20 solvent mix of acetonitrile:methanol:water were transferred to labeled cryotubes and stored at −80° C. for LCMS/MS analysis.
LC-MS/MS analysis was performed by scheduled multiple reaction monitoring (sMRM) under Analyst v1.6.2 software control in both negative and positive mode with rapid polarity switching (50 ms). Nitrogen was used for curtain gas (set to 30), collision gas (set to high), ion source gas 1 and 2 (set to 35). The source temperature was 500° C. Spray voltage was set to −4500 V in negative mode and 5500 V in positive mode. The values for Q1 and Q3 mass-to-charge ratios (m/z), declustering potential (DP), entrance potential (EP), collision energy (CE), and collision cell exit potential (CXP) were determined and optimized for each MRM for each metabolite. Ten microliters of extract was injected by PAL CTC autosampler via a 10 μl stainless steel loop into a 250 mm×2.0 mm, 4 μm polymer based NH2 HPLC column (Asahipak NH2P-40 2E, Showa Denko America, Inc., NY) held at 25° C. for chromatographic separation. The mobile phase was solvent A: 95% water with 20 mM (NH4)2CO3 (Sigma, Fluka Cat #74415-250G-F), 5% acetonitrile, and 38 mM NH4OH (Sigma, Fluka Cat #17837-100ML), final pH 9.75; solvent B: 100% acetonitrile. Separation was achieved using the following gradient: 0-3.5 min: 95% B, 3.6-8 min: 85% B, 8.1-13 min: 75% B, 13.5-35 min: 0% B, 36-46 min: 95% B, 46.1 min: end. The flow rate was 200 μl/min. Pump pressures ranged from 920-2600 psi over the course of the gradient. All the samples were kept at 4° C. during analysis. The chromatographic peaks were identified using MultiQuant (v3.0, Sciex), confirmed by manual inspection, and the peak areas integrated. […]

[1] = SAM, SAH, Methionine, Cysteine, Glutathione Metabolism
[2] = Taurine, Hypotaurine Metabolism
[3] = Tryptophan, Kynurenine, Serotonin, Melatonin Metabolism
[4] = Tyrosine and Phenylalanine Metabolism
[5] = Vitamin D (Calciferol) Metabolism

Cc1ccc(C(=O)Nc2ccc(S(=O)(=O)O)c3cc(S(=O)(=O)O)cc(S(=O)(=O)O)c23)cc1NC(=O)c1cccc(NC(=O)Nc2cccc(C(=O)Nc3cc(C(=O)Nc4ccc(S(=O)(=O)O)c5cc(S(=O)(=O)O)cc(S(=O)(=O)O)c45)ccc3C)c2)c1 [Suramin, suramin]
Z Score, Azelaic acid (Nitric Oxide, Superoxide, Peroxide Metabolism): −2.024
Linear Ratio, LysoPC(16:0) (Phospholipid Metabolism): 0.777
Linear Ratio, PA(16:0/16:1) (Phospholipid Metabolism): 0.793
Linear Ratio, PG(16:0/16:0) (Phospholipid Metabolism): 0.549
VIP Score, LysoPC(16:0) (Phospholipid Metabolism): 2.067
VIP Score, PA(16:0/16:1) (Phospholipid Metabolism): 1.998
VIP Score, PG(16:0/16:0) (Phospholipid Metabolism): 1.664
Z Abs, LysoPC(16:0) (Phospholipid Metabolism): 0.908
Z Abs, PA(16:0/16:1) (Phospholipid Metabolism): 0.813
Z Abs, PG(16:0/16:0) (Phospholipid Metabolism): 0.667
Z Score, LysoPC(16:0) (Phospholipid Metabolism): −0.908
Z Score, PA(16:0/16:1) (Phospholipid Metabolism): −0.813
Z Score, PG(16:0/16:0) (Phospholipid Metabolism): −0.667
Linear Ratio, 1-Methyladenine (Purine Metabolism): 1.631
Linear Ratio, AICAR (Purine Metabolism): 1.309
Linear Ratio, Allantoin (Purine Metabolism): 1.663
Linear Ratio, Cyclic adenosine monophosphate (Purine Metabolism): 0.855
Linear Ratio, Deoxyguanosine diphosphate (Purine Metabolism): 0.889
Linear Ratio, Guanosine (Purine Metabolism): 0.702
Linear Ratio, Hypoxanthine (Purine Metabolism): 0.745
Linear Ratio, Purine (Purine Metabolism): 1.203
Linear Ratio, Xanthosine (Purine Metabolism): 0.821
VIP Score, 1-Methyladenine (Purine Metabolism): 2.033
VIP Score, AICAR (Purine Metabolism): 1.787
VIP Score, Allantoin (Purine Metabolism): 2.195
VIP Score, Cyclic adenosine monophosphate (Purine Metabolism): 1.949
VIP Score, Deoxyguanosine diphosphate (Purine Metabolism): 2.264
VIP Score, Guanosine (Purine Metabolism): 1.519
VIP Score, Hypoxanthine (Purine Metabolism): 2.267
VIP Score, Purine (Purine Metabolism): 1.847
VIP Score, Xanthosine (Purine Metabolism): 1.764
Z Abs, 1-Methyladenine (Purine Metabolism): 1.337
Z Abs, AICAR (Purine Metabolism): 1.310
Z Abs, Allantoin (Purine Metabolism): 0.926
Z Abs, Cyclic adenosine monophosphate (Purine Metabolism): 0.681
Z Abs, Deoxyguanosine diphosphate (Purine Metabolism): 1.276
Z Abs, Guanosine (Purine Metabolism): 0.766
Z Abs, Hypoxanthine (Purine Metabolism): 1.000
Z Abs, Purine (Purine Metabolism): 1.137
Z Abs, Xanthosine (Purine Metabolism): 1.316
Z Score, 1-Methyladenine (Purine Metabolism): 1.337
Z Score, AICAR (Purine Metabolism): 1.310
Z Score, Allantoin (Purine Metabolism): 0.926
Z Score, Cyclic adenosine monophosphate (Purine Metabolism): −0.681
Z Score, Deoxyguanosine diphosphate (Purine Metabolism): −1.276
Z Score, Guanosine (Purine Metabolism): −0.766
Z Score, Hypoxanthine (Purine Metabolism): −1.000
Z Score, Purine (Purine Metabolism): 1.137
Z Score, Xanthosine (Purine Metabolism): −1.316
Linear Ratio, Cytosine (Pyrimidine Metabolism): 1.689
Linear Ratio, Orotic acid (Pyrimidine Metabolism): 0.670
VIP Score, Cytosine (Pyrimidine Metabolism): 2.556
VIP Score, Orotic acid (Pyrimidine Metabolism): 1.787
Z Abs, Cytosine (Pyrimidine Metabolism): 2.055
Z Abs, Orotic acid (Pyrimidine Metabolism): 0.612
Z Score, Cytosine (Pyrimidine Metabolism): 2.055
Z Score, Orotic acid (Pyrimidine Metabolism): −0.612
Linear Ratio, Cysteamine [1]: 1.107
Linear Ratio, Cysteine-S-sulfate [1]: 0.869
Linear Ratio, Methionine sulfoxide [1]: 1.331
VIP Score, Cysteamine [1]: 2.075
VIP Score, Cysteine-S-sulfate [1]: 1.682
VIP Score, Methionine sulfoxide [1]: 1.817
Z Abs, Cysteamine [1]: 1.398
Z Abs, Cysteine-S-sulfate [1]: 0.644
Z Abs, Methionine sulfoxide [1]: 1.738
Z Score, Cysteamine [1]: 1.398
Z Score, Cysteine-S-sulfate [1]: −0.644
Z Score, Methionine sulfoxide [1]: 1.738
Linear Ratio, SM(d18:1/20:0) (Sphingomyelin Metabolism): 0.712
Linear Ratio, SM(d18:1/20:1) (Sphingomyelin Metabolism): 0.745
VIP Score, SM(d18:1/20:0) (Sphingomyelin Metabolism): 1.576
VIP Score, SM(d18:1/20:1) (Sphingomyelin Metabolism): 2.033
Z Abs, SM(d18:1/20:0) (Sphingomyelin Metabolism): 0.770
Z Abs, SM(d18:1/20:1) (Sphingomyelin Metabolism): 1.250
Z Score, SM(d18:1/20:0) (Sphingomyelin Metabolism): −0.770
Z Score, SM(d18:1/20:1) (Sphingomyelin Metabolism): −1.250
Linear Ratio, Taurine [2]: 0.786
VIP Score, Taurine [2]: 2.042
Z Abs, Taurine [2]: 0.942
Z Score, Taurine [2]: −0.942
Linear Ratio, L-Kynurenine [3]: 1.099
VIP Score, L-Kynurenine [3]: 1.617
Z Abs, L-Kynurenine [3]: 0.625
Z Score, L-Kynurenine [3]: 0.625
Linear Ratio, L-Phenylalanine [4]: 1.164
VIP Score, L-Phenylalanine [4]: 1.839
Z Abs, L-Phenylalanine [4]: 0.957
Z Score, L-Phenylalanine [4]: 0.957
Linear Ratio, 1,25-Dihydroxyvitamin D3 [5]: 0.273
VIP Score, 1,25-Dihydroxyvitamin D3 [5]: 3.134
Z Abs, 1,25-Dihydroxyvitamin D3 [5]: 1.447
Z Score, 1,25-Dihydroxyvitamin D3 [5]: −1.447
